The assay concerns the target T1, Nav1.7 (or SCN9A) channel (Homo sapiens, UniProt Q15858).
T1 construct: expressed in transfected cells
Kind of assay: Nav1.7 PatchXpress 7000 automated electrophysiology assay (HEK cells stably expressing hSCN9A). The following applies: voltage-clamped at V1/2 of inactivation, read-out: Nav1.7 EIC50. It is filed as cell-based. In outline: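 Automated whole-cell clamp (PatchXpress) of HEK cells stably expressing hSCN9A, at 22-24 °C, in extracellular buffer at pH 7.4. Cells were held at the measured V1/2 of inactivation, then stepped to 0 mV for 20 ms. Single-concentration % inhibition gave EIC50 = concentration × (100 − %inhibition)/%inhibition, excluding <20% or >80%.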
T1 sequence (Q15858 whole entry): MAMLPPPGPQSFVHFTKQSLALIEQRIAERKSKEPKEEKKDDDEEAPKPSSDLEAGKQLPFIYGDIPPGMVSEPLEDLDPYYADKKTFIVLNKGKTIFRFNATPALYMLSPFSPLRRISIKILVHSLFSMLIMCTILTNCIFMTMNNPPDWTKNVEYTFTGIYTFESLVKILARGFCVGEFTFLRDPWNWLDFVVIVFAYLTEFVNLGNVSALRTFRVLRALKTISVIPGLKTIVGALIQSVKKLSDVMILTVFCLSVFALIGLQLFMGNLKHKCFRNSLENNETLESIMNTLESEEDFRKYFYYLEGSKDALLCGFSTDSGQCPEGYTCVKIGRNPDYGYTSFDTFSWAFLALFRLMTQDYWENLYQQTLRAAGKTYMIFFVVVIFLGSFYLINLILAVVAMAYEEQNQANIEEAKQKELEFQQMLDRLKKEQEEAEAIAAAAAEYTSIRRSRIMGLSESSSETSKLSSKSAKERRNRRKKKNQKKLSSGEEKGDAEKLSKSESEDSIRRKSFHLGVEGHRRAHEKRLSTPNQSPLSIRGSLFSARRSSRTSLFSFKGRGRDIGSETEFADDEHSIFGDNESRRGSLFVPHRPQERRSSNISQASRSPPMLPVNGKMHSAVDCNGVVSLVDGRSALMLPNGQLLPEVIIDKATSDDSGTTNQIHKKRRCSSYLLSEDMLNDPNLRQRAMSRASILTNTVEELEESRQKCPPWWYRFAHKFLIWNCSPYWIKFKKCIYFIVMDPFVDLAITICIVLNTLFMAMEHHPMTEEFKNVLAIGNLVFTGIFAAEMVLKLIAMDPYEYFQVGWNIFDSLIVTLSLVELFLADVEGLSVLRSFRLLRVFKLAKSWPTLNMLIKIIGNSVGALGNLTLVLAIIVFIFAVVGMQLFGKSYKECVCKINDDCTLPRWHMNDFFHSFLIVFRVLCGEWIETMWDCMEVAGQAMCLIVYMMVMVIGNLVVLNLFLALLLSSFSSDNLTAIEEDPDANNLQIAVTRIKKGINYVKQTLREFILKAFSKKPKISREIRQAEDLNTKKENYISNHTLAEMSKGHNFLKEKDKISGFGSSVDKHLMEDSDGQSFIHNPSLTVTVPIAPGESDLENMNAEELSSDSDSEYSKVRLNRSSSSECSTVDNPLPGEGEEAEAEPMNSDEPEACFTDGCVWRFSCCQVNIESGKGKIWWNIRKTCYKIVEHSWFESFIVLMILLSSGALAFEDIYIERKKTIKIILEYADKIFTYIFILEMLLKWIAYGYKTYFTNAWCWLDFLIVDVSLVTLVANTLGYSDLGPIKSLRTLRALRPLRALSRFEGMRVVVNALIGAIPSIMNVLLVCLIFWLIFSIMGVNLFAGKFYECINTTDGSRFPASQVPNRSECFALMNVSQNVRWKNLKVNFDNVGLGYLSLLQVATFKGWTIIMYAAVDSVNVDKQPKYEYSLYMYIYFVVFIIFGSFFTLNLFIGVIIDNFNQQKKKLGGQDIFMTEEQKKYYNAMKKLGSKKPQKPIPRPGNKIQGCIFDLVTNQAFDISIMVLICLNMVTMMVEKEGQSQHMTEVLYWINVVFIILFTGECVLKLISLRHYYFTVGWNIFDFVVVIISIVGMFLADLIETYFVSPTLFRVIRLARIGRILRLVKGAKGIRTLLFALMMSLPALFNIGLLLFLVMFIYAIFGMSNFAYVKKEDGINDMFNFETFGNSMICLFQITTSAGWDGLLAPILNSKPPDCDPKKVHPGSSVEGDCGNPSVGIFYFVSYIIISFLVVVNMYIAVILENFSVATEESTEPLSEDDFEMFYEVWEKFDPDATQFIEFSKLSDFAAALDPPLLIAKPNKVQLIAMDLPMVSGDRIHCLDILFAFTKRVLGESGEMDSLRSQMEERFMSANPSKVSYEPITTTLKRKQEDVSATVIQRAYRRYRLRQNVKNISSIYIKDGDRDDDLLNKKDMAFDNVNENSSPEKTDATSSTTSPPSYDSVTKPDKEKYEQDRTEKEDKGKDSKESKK
Consider `Cc1ccc(Oc2ccc(C(=O)NS(C)(=O)=O)cc2)cc1C` [Example 167, 4-(3,4-dimethylphenoxy)-N-(methylsulfonyl)benzamide], for which the IC50 came to 12 µM. Next, `CS(=O)(=O)NC(=O)c1cc(F)c(Oc2cc(Cl)cc(Cl)c2)cc1F` [Example 101, 4-(3,5-dichlorophenoxy)-2,5-difluoro-N-(methylsulfonyl)benzamide]: 1.5 µM; `CS(=O)(=O)NC(=O)c1ccc(Oc2ccc(Cl)c(Cl)c2)c(C(F)(F)F)c1` [Example 27, 4-(3,4-dichlorophenoxy)-N-(methylsulfonyl)-3-(trifluoromethyl)benzamide]: 0.19 µM; `COc1c(C(=O)NS(C)(=O)=O)ccc(Oc2ccc(Cl)c(C(F)(F)F)c2)c1F` [Example 78, 4-(4-chloro-3-(trifluoromethyl)phenoxy)-3-fluoro-2-methoxy-N-(methylsulfonyl)benzamide]: 4.2 µM.

As to `Cc1ccc(Cl)cc1Oc1ccc(C(=O)NS(C)(=O)=O)cc1` [Example 177, 4-(5-chloro-2-methylphenoxy)-N-(methylsulfonyl)benzamide], the IC50 is 16 µM. Next, `Cc1cccc(Oc2ccc(C(=O)NS(C)(=O)=O)cc2Cl)c1` [Example 250, 3-chloro-4-(3-methylphenoxy)-N-(methylsulfonyl)benzamide]: 1.4 µM; `Cn1nccc1-c1cc(Cl)ccc1Oc1ccc(C(=O)NS(C)(=O)=O)cc1` [Example 83, 4-(4-chloro-2-(1-methyl-1H-pyrazol-5-yl)phenoxy)-N-(methylsulfonyl)benzamide]: greater than 3 µM; `Cc1cccc(C)c1Oc1cc(F)c(C(=O)NS(C)(=O)=O)cc1F` [Example 104, 4-(2,6-dimethylphenoxy)-2,5-difluoro-N-(methylsulfonyl)benzamide]: greater than 3 µM. Next, `CCc1cc(F)ccc1Oc1ccc(C(=O)NS(C)(=O)=O)cc1` [Example 35, 4-(2-ethyl-4-fluorophenoxy)-N-(methylsulfonyl)benzamide]: 11 µM.

As to `CCS(=O)(=O)NC(=O)c1ccc(Oc2ccccc2)cc1` [Example 307, N-(ethylsulfonyl)-4-phenoxybenzamide], the IC50 worked out at 9.7 µM.

Take `COc1ccc(Cl)cc1Oc1cc(F)c(C(=O)NS(C)(=O)=O)cc1Cl` [Example 54, 5-chloro-4-(5-chloro-2-methoxyphenoxy)-2-fluoro-N-(methylsulfonyl)benzamide]: the IC50 amounted to 2.3 µM.

Regarding `CS(=O)(=O)NC(=O)c1ccc(Sc2ccccc2Cl)cc1` [Example 323, 4-(2-chlorophenylthio)-N-(methylsulfonyl)benzamide], the IC50 is 36 µM. Regarding `CS(=O)(=O)NC(=O)c1ccc(Oc2cccc(Cl)c2)cc1` [Example 202, 4-(3-chlorophenoxy)-N-(methylsulfonyl)benzamide], the IC50 is 6.9 µM. Next, `Cn1nccc1-c1cc(Cl)ccc1Oc1cc(F)c(C(=O)NS(C)(=O)=O)cc1Cl` [Example 80, 5-chloro-4-[4-chloro-2-(1-methyl-1H-pyrazol-5-yl)phenoxy]-2-fluoro-N-(methylsulfonyl)benzamide]: greater than 3 µM.

For the molecule `CCS(=O)(=O)NC(=O)c1ccc(Oc2cccc(F)c2)cc1` [Example 306, N-(ethylsulfonyl)-4-(3-fluorophenoxy)benzamide], the IC50 was found to be 25 µM. Next, `CS(=O)(=O)NC(=O)c1cc(F)c(Oc2cc(F)cc(F)c2F)cc1F` [Example 97, 2,5-difluoro-N-(methylsulfonyl)-4-(2,3,5-trifluorophenoxy)benzamide]: 7 µM; `COc1cc(C(=O)NS(C)(=O)=O)ccc1Oc1ccc(Cl)c(Cl)c1` [Example 10, 4-(3,4-dichlorophenoxy)-3-methoxy-N-(methylsulfonyl)benzamide]: 0.97 µM; `CS(=O)(=O)NC(=O)c1c(F)cc(Oc2ccc(Cl)c(C(F)(F)F)c2)cc1F` [Example 31, 4-(4-chloro-3-(trifluoromethyl)phenoxy)-2,6-difluoro-N-(methylsulfonyl)benzamide]: 5.7 µM. Regarding `CS(=O)(=O)NC(=O)c1cc(Cl)c(Oc2ccc(Cl)c(Cl)c2)cc1F` [Example 2, 5-Chloro-4-(3,4-dichlorophenoxy)-2-fluoro-N-(methylsulfonyl)benzamide], the IC50 amounted to 0.064 µM. Next, `COc1ccccc1Sc1ccc(C(=O)NS(C)(=O)=O)cc1` [Example 324, 4-(2-methoxyphenylthio)-N-(methylsulfonyl)benzamide]: greater than 3 µM; `COc1ccc(Oc2ccc(C(=O)NS(C)(=O)=O)cc2)c(Cl)c1` [Example 183, 4-(2-chloro-4-methoxyphenoxy)-N-(methylsulfonyl)benzamide]: greater than 10 µM. For `COc1cc(C#N)ccc1Oc1cc(F)c(C(=O)NS(C)(=O)=O)cc1F` [Example 135, 4-(4-cyano-2-methoxyphenoxy)-2,5-difluoro-N-(methylsulfonyl)benzamide], the IC50 is greater than 3 µM. For `Cc1cc(Cl)ccc1Oc1cc(F)c(C(=O)NS(C)(=O)=O)cc1F` [Example 102, 4-(4-chloro-2-methylphenoxy)-2,5-difluoro-N-(methylsulfonyl)benzamide], the IC50 worked out at 3.7 µM. With `CCc1cccc(Oc2cc(F)c(C(=O)NS(C)(=O)=O)cc2F)c1` [Example 147, 4-(3-ethylphenoxy)-2,5-difluoro-N-(methylsulfonyl)benzamide], the IC50 is greater than 3 µM. Next, `Cc1ccc(F)cc1Oc1cc(F)c(C(=O)NS(C)(=O)=O)cc1F` [Example 115, 2,5-difluoro-4-(5-fluoro-2-methylphenoxy)-N-(methylsulfonyl)benzamide]: greater than 3 µM; `CCOc1ccc(Oc2ccc(C(=O)NS(C)(=O)=O)cc2C#N)cc1` [Example 265, 3-cyano-4-(4-ethoxyphenoxy)-N-(methylsulfonyl)benzamide]: 4.8 µM; `COc1cc(Cl)ccc1Oc1ccc(C(=O)NS(C)(=O)=O)cc1F` [Example 65, 4-(4-chloro-2-methoxyphenoxy)-3-fluoro-N-(methylsulfonyl)benzamide]: greater than 1 µM. Next, `O=C(NS(=O)(=O)C1CC1)c1ccc(Oc2ccc(Cl)c(C(F)(F)F)c2)cc1` [Example 1, 4-[4-Chloro-3-(trifluoromethyl)phenoxy]-N-(cyclopropylsulfonyl)benzamide]: 0.81 µM; `COc1cc(Oc2ccc(Cl)c(F)c2)ccc1C(=O)NS(C)(=O)=O` [Example 228, 4-(4-chloro-3-fluorophenoxy)-2-methoxy-N-(methylsulfonyl)benzamide]: 5.4 µM. Next, `Cc1ccc(Oc2cc(F)c(C(=O)NS(C)(=O)=O)cc2F)cc1C` [Example 141, 4-(3,4-dimethylphenoxy)-2,5-difluoro-N-(methylsulfonyl)benzamide]: 2.5 µM; `CS(=O)(=O)NC(=O)c1cc(F)c(Oc2ccc(F)cc2)cc1F` [Example 131, 2,5-difluoro-4-(4-fluorophenoxy)-N-(methylsulfonyl)benzamide]: 3.8 µM.

As for `CCOc1ccc(Oc2ccc(C(=O)NS(C)(=O)=O)cc2)cc1` [Example 253, 4-(4-ethoxyphenoxy)-N-(methylsulfonyl)benzamide], the IC50 came to 2.5 µM.

`CS(=O)(=O)NC(=O)c1ccc(Oc2cc(F)cc(F)c2)cc1` [Example 192, 4-(3,5-difluorophenoxy)-N-(methylsulfonyl)benzamide]: the IC50 turned out to be 14 µM. Next, `Cc1ccc(Cl)cc1Oc1cc(F)c(C(=O)NS(C)(=O)=O)cc1F` [Example 133, 4-(5-chloro-2-methylphenoxy)-2,5-difluoro-N-(methylsulfonyl)benzamide]: greater than 3 µM; `CCOc1ccccc1Oc1cc(F)c(C(=O)NS(C)(=O)=O)cc1F` [Example 98, 4-(2-ethoxyphenoxy)-2,5-difluoro-N-(methylsulfonyl)benzamide]: greater than 1 µM; `Cc1ccc(Cl)c(Oc2cc(F)c(C(=O)NS(C)(=O)=O)cc2F)c1` [Example 110, 4-(2-chloro-5-methylphenoxy)-2,5-difluoro-N-(methylsulfonyl)benzamide]: greater than 1 µM. Next, `CC(C)c1ccccc1Oc1ccc(C(=O)NS(C)(=O)=O)cc1` [Example 169, 4-(2-isopropylphenoxy)-N-(methylsulfonyl)benzamide]: 21 µM. With `CS(=O)(=O)NC(=O)c1ccc(Oc2ccc(Cl)c(C(F)(F)F)c2)c(C#N)c1` [Example 62, 4-[4-chloro-3-(trifluoromethyl)phenoxy]-3-cyano-N-(methylsulfonyl)benzamide], the IC50 was 0.89 µM.

With `COc1ccc(Oc2cc(F)c(C(=O)NS(C)(=O)=O)cc2F)c(C#N)c1` [Example 116, 4-(2-cyano-4-methoxyphenoxy)-2,5-difluoro-N-(methylsulfonyl)benzamide], the IC50 is greater than 3 µM. Next, `COc1ccc(F)cc1Oc1ccc(C(=O)NS(C)(=O)=O)cc1` [Example 188, 4-(5-fluoro-2-methoxyphenoxy)-N-(methylsulfonyl)benzamide]: greater than 10 µM; `CS(=O)(=O)NC(=O)c1cc(Cl)c(Oc2ccc(C(F)(F)F)cc2-c2ccnnc2)cc1F` [Example 313, 5-chloro-2-fluoro-N-(methylsulfonyl)-4-[2-pyridazin-4-yl-4-(trifluoromethyl)phenoxy]benzamide]: 9.9 µM; `Cc1ccc(Oc2ccc(C(=O)NS(C)(=O)=O)cc2)cc1Cl` [Example 198, 4-(3-chloro-4-methylphenoxy)-N-(methylsulfonyl)benzamide]: 1.4 µM. Next, `CS(=O)(=O)NC(=O)c1cc(F)c(Oc2ccc(C#N)c(Cl)c2)cc1F` [Example 95, 4-(3-chloro-4-cyanophenoxy)-2,5-difluoro-N-(methylsulfonyl)benzamide]: greater than 3 µM.

In the case of `CS(=O)(=O)NC(=O)c1ccc(Oc2cccc(OC(F)(F)F)c2)cc1` [Example 30, N-(methylsulfonyl)-4-[3-(trifluoromethoxy)phenoxy]benzamide], the IC50 stood at 0.76 µM.

Values taken from patent US8685977B2, “Chemical compounds” (Pfizer Limited, priority 2010, dated 2014).
